Peptide text beside a SMILES is read from it. * marks the point of attachment. AMC = Cc1cc(=O)oc2cc(N*)ccc12; Cbz = O=C(OCc1ccccc1)*
Experiments:
Calpain I = biological target: T1, Calpain I (Sus scrofa, UniProt P35750); test: Calpain I incubation inhibition assay; format: biochemical, porcine; conditions: Table 4, cross reactivity of caspase inhibitors; listed as Cbz-Leu-Glu-Thr-AAsp-trans-CH═CH—COOEt
T1 construct: by the incubation method with calpain I from porcine erythrocytes; from tissue; host or cells: porcine erythrocytes
T1 sequence (P35750 1-714): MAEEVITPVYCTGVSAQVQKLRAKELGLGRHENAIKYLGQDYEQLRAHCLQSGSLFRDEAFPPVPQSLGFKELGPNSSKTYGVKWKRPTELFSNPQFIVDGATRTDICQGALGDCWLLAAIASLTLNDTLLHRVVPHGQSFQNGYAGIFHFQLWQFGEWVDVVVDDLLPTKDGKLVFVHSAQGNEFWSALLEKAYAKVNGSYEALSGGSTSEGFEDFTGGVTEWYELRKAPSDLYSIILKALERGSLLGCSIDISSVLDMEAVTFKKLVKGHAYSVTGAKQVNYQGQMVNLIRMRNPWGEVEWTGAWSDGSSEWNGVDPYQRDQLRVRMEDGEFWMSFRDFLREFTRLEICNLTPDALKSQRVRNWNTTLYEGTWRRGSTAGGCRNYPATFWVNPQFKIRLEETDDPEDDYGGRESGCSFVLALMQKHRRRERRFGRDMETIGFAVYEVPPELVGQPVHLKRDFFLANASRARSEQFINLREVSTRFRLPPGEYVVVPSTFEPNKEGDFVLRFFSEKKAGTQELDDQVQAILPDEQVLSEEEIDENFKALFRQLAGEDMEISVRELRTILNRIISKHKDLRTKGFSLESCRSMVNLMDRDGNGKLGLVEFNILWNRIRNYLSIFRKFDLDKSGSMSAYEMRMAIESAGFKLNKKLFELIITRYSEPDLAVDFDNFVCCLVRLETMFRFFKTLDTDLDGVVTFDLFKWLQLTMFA
T1 sequence (P04574 1-266 partner): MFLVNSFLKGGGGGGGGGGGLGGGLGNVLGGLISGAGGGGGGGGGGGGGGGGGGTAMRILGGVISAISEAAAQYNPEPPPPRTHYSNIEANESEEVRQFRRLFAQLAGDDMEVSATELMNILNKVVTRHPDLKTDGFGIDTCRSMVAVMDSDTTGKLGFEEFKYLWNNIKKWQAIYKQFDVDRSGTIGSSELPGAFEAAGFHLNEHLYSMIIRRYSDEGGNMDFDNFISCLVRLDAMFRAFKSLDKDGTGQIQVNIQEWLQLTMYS
Description: Calpain I. Irreversible kinetic assays were performed by the incubation method with calpain I from porcine erythrocytes. […] At various time intervals 50 μL aliquots were withdrawn from the incubation mixture and added to 200 μL enzyme buffer containing Suc-Leu-Tyr-AMC (1.6 mM). […] Pseudo first-order rate constants (kobs) were obtained from plots of ln vt/vo versus time.

Cathepsin B [1] = biological target: T2, Cathepsin B (Homo sapiens, UniProt P07858); test: Cathepsin B incubation inhibition assay; format: biochemical; conditions: for kobs/[I] Cathepsin B: Table 5, gingipain and clostripain specific inhibitors
Description: Papain and Cathepsin B. The incubation method was used to measure the irreversible inhibition of papain and cathepsin B. […] Pseudo first-order inactivation rate constants were obtained from plots of ln vt/vo versus time.

Caspase-3 = biological target: T3, Caspase-3 (Homo sapiens, UniProt P42574); test: Caspase-3 progress curve inhibition assay; conditions: second-order rate constant; Ac-DEVD-AMC substrate; Pipes buffer pH 7.2
T3 sequence (P42574 29-175 limits assumed): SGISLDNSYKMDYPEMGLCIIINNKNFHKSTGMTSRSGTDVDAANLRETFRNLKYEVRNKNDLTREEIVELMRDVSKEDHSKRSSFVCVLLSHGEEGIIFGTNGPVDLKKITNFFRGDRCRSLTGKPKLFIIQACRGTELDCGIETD
T3 sequence (P42574 176-277 limits assumed): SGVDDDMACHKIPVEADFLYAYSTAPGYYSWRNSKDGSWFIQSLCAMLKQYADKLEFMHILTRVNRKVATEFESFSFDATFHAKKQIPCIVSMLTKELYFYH

Caspase-9 = biological target: T4, Caspase-9 (Homo sapiens, UniProt P55211); test: Caspase-9 progress curve inhibition assay; conditions: second-order rate constant; Ac-LEHD-AFC substrate; Hepes buffer pH 7.0 with 0.7 M sodium citrate
T4 sequence (P55211 1-315 limits assumed): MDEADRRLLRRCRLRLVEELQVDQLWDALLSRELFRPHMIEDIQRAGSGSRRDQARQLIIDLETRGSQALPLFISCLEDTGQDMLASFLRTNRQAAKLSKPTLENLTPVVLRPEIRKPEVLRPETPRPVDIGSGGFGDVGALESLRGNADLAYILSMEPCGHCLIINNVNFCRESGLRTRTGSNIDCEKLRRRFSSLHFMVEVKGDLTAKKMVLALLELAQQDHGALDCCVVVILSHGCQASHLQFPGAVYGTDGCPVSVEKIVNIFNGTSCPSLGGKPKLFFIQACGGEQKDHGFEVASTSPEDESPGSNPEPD
T4 sequence (P55211 331-416 limits assumed): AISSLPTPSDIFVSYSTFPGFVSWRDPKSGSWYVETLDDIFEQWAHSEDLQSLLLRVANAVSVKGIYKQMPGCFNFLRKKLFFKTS

cathepsin L = cathepsin L (Homo sapiens, UniProt P07711); conditions: irreversible inhibition; background art; cited from earlier work
Sequence of cathepsin L (P07711 114-333, species assumed): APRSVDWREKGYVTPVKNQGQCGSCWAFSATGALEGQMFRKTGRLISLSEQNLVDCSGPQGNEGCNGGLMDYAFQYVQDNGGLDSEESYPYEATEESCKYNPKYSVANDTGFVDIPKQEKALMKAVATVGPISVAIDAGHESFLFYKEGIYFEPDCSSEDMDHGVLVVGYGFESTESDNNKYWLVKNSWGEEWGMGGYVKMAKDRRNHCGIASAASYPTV

clan CD proteases = conditions: background art; cited from earlier work
Cathepsin B [2] = biological target: T2, Cathepsin B; conditions: irreversible inhibition; background art; cited from earlier work
S. mansoni legumain [3] = biological target: S. mansoni legumain (Schistosoma mansoni, UniProt P09841, N192C); test: S. mansoni legumain (SmAE) inhibition assay; format: biochemical
Sequence of S. mansoni legumain (Schistosoma mansoni, UniProt P09841, N192C) (P09841 32-291 N192C): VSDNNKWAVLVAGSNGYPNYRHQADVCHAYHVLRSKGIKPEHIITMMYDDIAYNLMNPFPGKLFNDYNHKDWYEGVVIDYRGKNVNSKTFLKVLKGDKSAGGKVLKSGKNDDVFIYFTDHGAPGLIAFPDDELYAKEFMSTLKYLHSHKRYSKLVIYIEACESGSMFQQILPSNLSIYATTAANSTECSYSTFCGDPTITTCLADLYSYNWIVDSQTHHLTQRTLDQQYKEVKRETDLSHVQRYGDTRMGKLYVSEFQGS

Papain = biological target: T5, Papain (Carica papaya, UniProt P00784); test: Papain incubation inhibition assay; format: biochemical; conditions: for kinact/KI: pH 7.5, read-out: kobs/[I] Papain
T5 sequence (P00784 134-345): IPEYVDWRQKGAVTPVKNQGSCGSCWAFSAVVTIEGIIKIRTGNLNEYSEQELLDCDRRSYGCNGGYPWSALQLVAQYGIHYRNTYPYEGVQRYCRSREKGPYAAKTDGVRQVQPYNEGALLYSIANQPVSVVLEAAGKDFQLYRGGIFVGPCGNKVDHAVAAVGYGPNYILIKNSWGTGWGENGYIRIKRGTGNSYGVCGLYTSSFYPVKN
Description: Pseudo first-order inactivation rate constants were obtained from plots of ln vt/vo versus time.
The incubation method was also used for papain. The inhibition incubation buffer for papain was 50 mM Hepes buffer at pH 7.5, containing 2.5 mM DTT and 2.5 mM EDTA. The assay used the substrate Z-Phe-Arg-pNA (53.7 μM) in the same buffer. The approximate concentration of papain added to the incubation buffer was 0.29 mg/mL. The release of p-nitroanilide was monitored at 405 nm with a Molecular Devices Thermomax microplate reader.

Gingipain K = Gingipain K (Porphyromonas gingivalis, UniProt Q51817); test: biochemical; format: biochemical; conditions: for kinact/KI: pH 8, read-out: kobs/[I] Gingipain K; for k2 Gingipain K: Table 3, Suc-Ala-Phe-Lys-AMC substrate, pH 8.0
Sequence of Gingipain K (Q51817 229-1732 limits assumed): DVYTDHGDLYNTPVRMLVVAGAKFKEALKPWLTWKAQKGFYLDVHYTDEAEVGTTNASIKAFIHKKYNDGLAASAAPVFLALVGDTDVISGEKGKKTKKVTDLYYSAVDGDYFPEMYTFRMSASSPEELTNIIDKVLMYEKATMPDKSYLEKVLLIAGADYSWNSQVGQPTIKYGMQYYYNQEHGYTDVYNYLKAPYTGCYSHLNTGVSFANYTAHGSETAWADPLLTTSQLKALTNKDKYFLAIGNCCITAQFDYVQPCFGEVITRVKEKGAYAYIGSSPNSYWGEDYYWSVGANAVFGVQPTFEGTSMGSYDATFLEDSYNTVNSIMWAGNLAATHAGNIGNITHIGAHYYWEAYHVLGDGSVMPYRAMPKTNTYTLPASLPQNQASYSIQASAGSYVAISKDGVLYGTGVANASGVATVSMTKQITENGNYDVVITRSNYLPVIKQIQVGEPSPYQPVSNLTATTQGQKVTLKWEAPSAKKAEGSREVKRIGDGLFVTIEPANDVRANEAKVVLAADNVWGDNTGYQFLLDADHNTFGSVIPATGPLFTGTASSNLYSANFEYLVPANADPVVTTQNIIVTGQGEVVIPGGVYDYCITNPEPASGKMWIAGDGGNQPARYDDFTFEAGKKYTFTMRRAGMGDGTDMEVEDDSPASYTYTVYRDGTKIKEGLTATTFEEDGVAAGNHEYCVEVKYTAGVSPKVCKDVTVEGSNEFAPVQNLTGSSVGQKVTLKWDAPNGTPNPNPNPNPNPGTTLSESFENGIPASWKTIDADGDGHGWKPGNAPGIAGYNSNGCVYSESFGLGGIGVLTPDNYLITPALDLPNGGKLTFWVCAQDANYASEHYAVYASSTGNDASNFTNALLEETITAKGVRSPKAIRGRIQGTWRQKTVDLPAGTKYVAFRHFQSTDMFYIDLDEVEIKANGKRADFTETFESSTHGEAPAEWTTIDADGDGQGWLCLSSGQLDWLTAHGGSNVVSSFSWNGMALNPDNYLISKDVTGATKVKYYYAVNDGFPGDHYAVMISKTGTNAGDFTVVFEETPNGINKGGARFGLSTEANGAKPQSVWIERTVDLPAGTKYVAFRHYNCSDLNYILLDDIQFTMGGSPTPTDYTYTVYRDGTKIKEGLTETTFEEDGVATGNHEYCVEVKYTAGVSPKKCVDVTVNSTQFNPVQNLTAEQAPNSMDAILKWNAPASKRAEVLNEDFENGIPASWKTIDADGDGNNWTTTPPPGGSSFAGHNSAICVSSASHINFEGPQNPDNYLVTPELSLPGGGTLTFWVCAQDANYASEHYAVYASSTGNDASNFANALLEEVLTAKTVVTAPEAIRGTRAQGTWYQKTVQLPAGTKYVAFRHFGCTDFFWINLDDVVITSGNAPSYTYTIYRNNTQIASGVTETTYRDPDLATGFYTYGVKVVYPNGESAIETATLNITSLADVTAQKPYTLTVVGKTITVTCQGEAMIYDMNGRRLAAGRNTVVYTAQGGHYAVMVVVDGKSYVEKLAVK

human legumain = biological target: T6, human legumain (Homo sapiens, UniProt Q99538); conditions: synthetic substrate; background art; cited from earlier work
T6 sequence (Q99538 18-323): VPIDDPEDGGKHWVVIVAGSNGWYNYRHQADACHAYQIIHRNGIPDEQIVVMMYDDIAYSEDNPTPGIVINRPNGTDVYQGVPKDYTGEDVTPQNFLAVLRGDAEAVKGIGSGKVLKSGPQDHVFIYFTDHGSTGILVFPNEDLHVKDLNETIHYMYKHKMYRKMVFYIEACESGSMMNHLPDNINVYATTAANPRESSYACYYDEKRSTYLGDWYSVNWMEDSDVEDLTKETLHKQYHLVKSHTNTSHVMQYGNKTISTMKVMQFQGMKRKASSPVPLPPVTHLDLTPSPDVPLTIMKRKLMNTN

S. mansoni legumain [4] = conditions: background art, cited from earlier work
Clostripain = Clostripain (Hathewaya histolytica, UniProt P09870); conditions: Table 3; Z-Phe-Arg-AMC substrate; pH 7.6
Sequence of Clostripain (P09870 51-526): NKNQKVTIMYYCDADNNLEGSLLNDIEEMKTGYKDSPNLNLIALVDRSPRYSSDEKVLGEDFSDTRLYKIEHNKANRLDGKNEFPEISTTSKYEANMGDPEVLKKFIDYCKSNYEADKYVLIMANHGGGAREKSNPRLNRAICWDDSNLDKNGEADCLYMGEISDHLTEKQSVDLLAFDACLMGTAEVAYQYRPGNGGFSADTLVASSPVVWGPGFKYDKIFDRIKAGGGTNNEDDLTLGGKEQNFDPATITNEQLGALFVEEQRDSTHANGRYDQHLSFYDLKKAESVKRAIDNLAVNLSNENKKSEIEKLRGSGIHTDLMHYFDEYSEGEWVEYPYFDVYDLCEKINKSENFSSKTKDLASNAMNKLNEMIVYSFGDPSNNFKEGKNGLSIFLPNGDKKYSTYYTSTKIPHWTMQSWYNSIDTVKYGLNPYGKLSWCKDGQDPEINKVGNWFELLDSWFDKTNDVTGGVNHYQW

Gingipain R = Gingipain R inhibition; format: biochemical; conditions: Table 3
Trypsin = conditions: Table 5, gingipain and clostripain specific inhibitors

## CCOC(=O)/C=C/C(=O)N(CC(=O)O)NC(=O)[C@@H](NC(=O)[C@H](CCC(=O)O)NC(=O)[C@H](CC(C)C)NC(=O)OCc1ccccc1)[C@@H](C)O (relative stereo) [Cbz-Leu-Glu-Thr-AAsp-CH═CH—COOEt, N^2—(N-Berzyloxycarbonylleucylglutamylthreonyl)-N^1-carboxymethyl-N^1-trans-(3-ethoxycarbonylpropenoyl)hydrazine]
Calpain I
  k2 Calpain: <10 M⁻¹ s⁻¹
Cathepsin B [1]; Table 4, cross reactivity of caspase inhibitors, listed as Cbz-Leu-Glu-Thr-AAsp-trans-CH═CH—COOEt
  k2 Cathepsin B: <10 M⁻¹ s⁻¹
Caspase-3
  k2 Caspase-3: 5,560 M^−1s^−1
Caspase-9
  k2 Caspase-9: 37 M⁻¹ s⁻¹

## CC(C)CCNC(=O)[C@H](CC(C)C)NC(=O)/C=C/C(=O)O (stereo in doubt) [fumarate derivative of E-64c, trans-HOOCCH═CH—CO-Leu-NH(CH2)2CH(CH3)2]
Cathepsin L
  kapp cathepsin L: 2272 M⁻¹ s⁻¹
Clan CD proteases
  inhibition of clan CD proteases: do not inhibit
Cathepsin B [2]
  kapp cathepsin B: 625 M⁻¹ s⁻¹

## C[C@H](NC(=O)OCc1ccccc1)C(=O)N[C@@H](C)C(=O)NN(CC(N)=O)C(=O)/C=C/C(=O)N(Cc1ccccc1)Cc1ccccc1 [Cbz-Ala-Ala-AAsn-CH═CH—CON(Bzl)2, N^2—(N-BenzyloxycarbonylaIanylalanyl)-N^1-carbamoylmethyl-N^1-trans-(3-dibenzylcarbamoylpropenoyl)hydrazine]
S. mansoni legumain [3]
  IC50: 45 nM
S. mansoni legumain [3]; read-out: kobs/[I]
  kinact/KI: 5800 M⁻¹ s⁻¹
Papain
  kinact/KI: 1 M⁻¹ s⁻¹
Gingipain K
  kinact/KI: 2 M⁻¹ s⁻¹

## C[C@H](NC(=O)OCc1ccccc1)C(=O)N[C@@H](C)C(=O)NN(CC(N)=O)C(=O)/C=C/C(=O)NCCc1ccccc1 [Cbz-Ala-Ala-AAsn-CH═CH—CONHCH2CH2Ph, N^2—(N-Benzyloxycarbonylalanylalanyl)-N^1-carbamoylmethyl-N^1-trans-(3-phenethylcarbamoylpropenoyl)hydrazine]
S. mansoni legumain [3]
  IC50: 600 nM
Papain; Table 6, legumain specific inhibitors, NI = no inhibition after 20 minutes of incubation
  kobs/[I] Papain: 12 M⁻¹ s⁻¹
Papain
  kinact/KI: 12 M⁻¹ s⁻¹

## CCOC(=O)/C=C/C(=O)N(CC(N)=O)NC(=O)[C@H](C)NC(=O)[C@H](C)NC(=O)OCc1ccccc1 [Cbz-Ala-Ala-AAsn-CH═CH—COOEt, N^2—(N-BenzyloxycarbonylalanylaIanyl)-N^1-carbamoylmethyl-N^1-trans-(3-ethylesterpropenoyl)hydrazine]
Cathepsin B [1]; pH 6, read-out: kobs/[I] Cathepsin B
  kinact/KI: 1 M⁻¹ s⁻¹
Gingipain K
  kinact/KI: 6 M⁻¹ s⁻¹

## Cc1cc(=O)oc2cc(NC(=O)[C@H](CC(N)=O)NC(=O)[C@H](C)NC(=O)[C@H](C)NC(=O)OCc3ccccc3)ccc12 [Cbz-Ala-Ala-Asn-AMC] (Cbz-Ala-Ala-Asn-{AMC})
Human legumain
  Km: 80 µM
S. mansoni legumain [4]; synthetic substrate
  Km: 90 µM

## C[C@H](NC(=O)[C@H](Cc1ccccc1)NC(=O)OCc1ccccc1)C(=O)C=[N+]=[N-] [Cbz-Phe-Ala-CHN2]
S. mansoni legumain [4]
  inhibition of S. mansoni legumain: not inhibited

## CC(C)C[C@H](NC(=O)[C@H]1O[C@@H]1C(=O)O)C(=O)NCCCCN=C(N)N [Example E-64, E-64]
S. mansoni legumain [4]
  inhibition of S. mansoni legumain: not inhibited

## CC(C)CCNC(=O)[C@H](CC(C)C)NC(=O)[C@H]1O[C@@H]1C(=O)O [Example E-64c, E-64c]
Clan CD proteases
  inhibition of clan CD proteases: do not inhibit

## CC(C)C[C@H](NC(=O)CCc1ccccc1)C(=O)NN(CCCCN)C(=O)C=CC(=O)NCc1ccccc1 [PhPr-Leu-ALys-CH═CH—CONHCH2Ph]
Clostripain
  k2 Clostripain: 1,050 M^−1s^−1
Gingipain R
  k2 Gingipain R: 20 M⁻¹ s⁻¹
Gingipain K
  k2 Gingipain K: 236,000 M^−1s^−1

## CCOC(=O)C=CC(=O)N(CCCCN)NC(=O)[C@H](CC(C)C)NC(=O)CCc1ccccc1 [PhPr-Leu-ALys-CH═CH—COOEt]
Trypsin
  kobs/[I] Trypsin: 17 M⁻¹ s⁻¹
Cathepsin B [1]
  kobs/[I] Cathepsin B: 9 M⁻¹ s⁻¹
Clostripain
  k2 Clostripain: 40,750 M^−1s^−1
Gingipain R
  k2 Gingipain R: 289 M⁻¹ s⁻¹
Gingipain K
  k2 Gingipain K: 3,280,000 M^−1s^−1

## CC(C)C[C@H](NC(=O)CCc1ccccc1)C(=O)NN(CCCN)C(=O)C=CC(=O)N(Cc1ccccc1)Cc1ccccc1 [PhPr-Leu-AOrn-CH═CH—CON(CH2Ph)2]
Clostripain
  k2 Clostripain: 541 M⁻¹ s⁻¹
Gingipain R
  k2 Gingipain R: 541 M⁻¹ s⁻¹
Gingipain K
  k2 Gingipain K: 61,600 M^−1s^−1

## CCOC(=O)C=CC(=O)N(CCCN)NC(=O)[C@H](CC(C)C)NC(=O)CCc1ccccc1 [PhPr-Leu-AOrn-CH═CH—COOEt]
Cathepsin B [1]
  kobs/[I] Cathepsin B: 3 M⁻¹ s⁻¹
Clostripain
  k2 Clostripain: 788 M⁻¹ s⁻¹
Gingipain R
  k2 Gingipain R: 32 M⁻¹ s⁻¹
Gingipain K
  k2 Gingipain K: 927,000 M^−1s^−1
